Columns and labels:
[1] = Stability of L-DOPA ethyl ester forms; type: physicochemical
From the text: (§1) Great Britain Patent No. 1,364,505 and corresponding U.S. Pat. No. 3,803,120, assigned to Hoffman-La Roche, describe the synthesis of L-DOPA ethyl ester hydrochloride salt and free base. This compound is used as an intermediate in the synthesis of other compounds and is not characterized in the patent specification. […] This material cannot be used for pharmaceutical compositions. Likewise, the L-DOPA ethyl ester free base as prepared in these two patents is impure and not stable and thus also is not suitable for pharmaceutical compositions. At best it can be used as a synthetic intermediate for further chemical synthesis as described in the cited patents.
(§2) L-DOPA ethyl ester as free base obtained by this process is stable, non-hygroscopic, and crystalline. The LDEE free base has a particle size from 5 to 300 micron and an average particle size of 80 micron.

[2] = Hygroscopicity of L-DOPA ethyl ester forms; type: physicochemical
From the text: as §1, §2

[3] = Particle size of LDEE free base; type: physicochemical; settings: free base obtained by this process
From the text: as §2

[4] = composition produced according to the Milman process (U.S. Pat. No. 5,354,885); 6 months at 40° C.; cited from earlier work
[5] = free base obtained by this process
[6] = material synthesized by the methods of GB 1,364,505 / U.S. Pat. No. 3,803,120

SMILES | stability [1, 5] | stability [1, 6] | hygroscopicity [2, 5] | average particle size [3] | L-DOPA ethyl ester remaining after incubation [4] | hygroscopicity [2, 6]
CCOC(=O)[C@@H](N)Cc1ccc(O)c(O)c1 [L-DOPA ethyl ester] | stable | not stable | non-hygroscopic | 80 micron | at least 97 % by weight | –
CCOC(=O)[C@@H](N)Cc1ccc(O)c(O)c1.Cl [L-DOPA ethyl ester hydrochloride salt, L-DOPA ethyl ester hydrochloride, reference compound] | – | not stable | – | – | – | hygroscopic
